1 compound from patent US7300664B1, “Vaginally administrable progesterone-containing tablets and method for preparing same” (Ferring B.V., priority 1998, dated 2007) can be followed below.

Like-named read-outs stand apart in the source and are kept apart here.

A short description of data set [1]: Single-dose pharmacokinetics of progesterone vaginal tablets in post-menopausal women (Example 4, day 0). It counts as in vivo. As to conditions: single vaginal tablet, mean; for Tmax / half-life: female, human, serum; for half-life: read-out: T1/2 (mean elimination half-life) (converted); for Cmax: read-out: Cmax (maximal serum concentration). The procedure: The pharmacokinetics and clinical use of tablets prepared in accordance with the invention were evaluated as follows: 50 healthy, post-menopausal women with intact uteri, 39 of whom had suffered premature menopause and 11 who were truly postmenopausal, all of whom were undergoing hormone replacement therapy (HRT), submitted blood samples for determination of baseline profiles of hormones (progesterone and other hormones) and other biochemicals (bilirubin, cholesterol, etc.). The blood samples were taken at 8 AM on the first day of the evaluation (day 0) in a fasting state, by intravenous indwelling catheter which was introduced into the cubital vein. Non-estrogen primed postmenopausal women were chosen in order to avoid confusion with endogenous progesterone secretion and estrogen influence on vaginal mucosa absorption (Villanueva et al., Fertil. Steril. 35 (1981), 433-437). The women then self-administered the progesterone vaginal tablet using a plastic applicator and lay down for 20 minutes. Repeat blood samples for progesterone concentration were withdrawn 0.5, 1, 2, 4, 6, 8, 10, 12 and 24 hours after the vaginal insertion. Blood was allowed to clot at room temperature for 1 hour, after which the serum was separated by centrifugation and stored at −20° C. until analysis. Of the 50 women who participated in the evaluation, 20 were allocated tablets containing 50 mg progesterone, and the remainder of the participants received tablets containing 100 mg progesterone. […] The mean […] (Tmax), mean elimination half-life (T1/2), maximal serum concentration (Cmax), and AUC (area under the curve, i.e. total amount of plasma progesterone observed) derived from the blood samples taken on day 0 of the evaluation are summarized in Table II.

Data set [2] in a line: Clinical use: twice-daily vaginal tablets, blood samples on days 14 and 30 (Example 4). In kind it is in vivo, women. As to conditions: female, human, serum, other: vaginal, fasting morning sample, read-out: Blood Progesterone levels. The procedure:
The pharmacokinetics and clinical use of tablets prepared in accordance with the invention were evaluated as follows: 50 healthy, post-menopausal women with intact uteri, 39 of whom had suffered premature menopause and 11 who were truly postmenopausal, all of whom were undergoing hormone replacement therapy (HRT), submitted blood samples for determination of baseline profiles of hormones (progesterone and other hormones) and other biochemicals (bilirubin, cholesterol, etc.). The blood samples were taken at 8 AM on the first day of the evaluation (day 0) in a fasting state, by intravenous indwelling catheter which was introduced into the cubital vein. Non-estrogen primed postmenopausal women were chosen in order to avoid confusion with endogenous progesterone secretion and estrogen influence on vaginal mucosa absorption (Villanueva et al., Fertil. Steril. 35 (1981), 433-437). To evaluate clinical use of the drug, the women were instructed to insert tablets prepared in accordance with the present invention, containing the same dose as administered on day 0, twice daily starting on day 1, and to […] for 20 minutes after each insertion. On days 14 and 30, blood samples for comparison with the baseline were drawn in the morning while the subjects were in a fasting state. Of the 50 women who participated in the evaluation, 20 were allocated tablets containing 50 mg progesterone, and the remainder of the participants received tablets containing 100 mg progesterone.

[3] abbreviates: 50 mg progesterone, 20 subjects.
Where [4] appears, read: 100 mg progesterone, 30 subjects.

The Tmax is the time from dosing to the highest level. With `CC(=O)[C@H]1CC[C@H]2[C@@H]3CCC4=CC(=O)CC[C@]4(C)[C@H]3CC[C@]12C` [Progesterone, progesterone], the Tmax in data set [1] (setting [3]) came out at 6.1 h; in data set [1] (setting [4]) it was 6.4 h. Further, the results for the half-life in data set [1] (setting [3]) and in data set [1] (setting [4]) were 791 min and 822 min, respectively. Also, the “AUC (area under the curve)” value in data set [1] (setting [3]) stood at 154.15 nmol/h/L; in data set [1] (100 mg progesterone, 30 subjects, P = 0.001) it was 247.61 nmol/h/L. For the same compound, the Cmax is 20.4 nM in data set [1] (setting [3]) and 31.6 nM in data set [1] (100 mg progesterone, 30 subjects, P = 0.0004). Also, the concentration at 14 day stood at 17.5 nM in data set [2] (50 mg twice daily, Day 14, 50 mg tablet twice daily, 20 subjects) and 26.1 nM in data set [2] (100 mg twice daily, Day 14, 100 mg tablet twice daily, 30 subjects). Also, the concentration at 30 day stood at 17.4 nM in data set [2] (50 mg twice daily, Day 30, 50 mg tablet twice daily, 20 subjects) and 21.4 nM in data set [2] (100 mg twice daily, Day 30, 100 mg tablet twice daily, 30 subjects).
